According to patent US9790221B2, “Heteroaryl compounds as IRAK inhibitors and uses thereof” (Merck Patent GmbH, priority 2014, dated 2017):

Assays:
[1] = system: TLR7 induced IL-6 secretion in human mononuclear cells (PBMC's); assay: TLR7 induced IL-6 in human PBMC's; type: cell-based; conditions: Homo sapiens, PBMC, read-out: TLR7 induced IL-6 secretion in hPBMC's (IC50)
Procedure, shortened: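 Fresh or frozen healthy-donor PBMCs preincubated 30 min at 37° C. with compound (25 uM to 0.4 nM; vehicle 0.25% DMSO) in RPMI/10% HI-FBS. Stimulated with TLR7 ligand (2 uM) for 16-18 h at 37° C.; supernatant IL-6 measured by AlphaLISA.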

IRAK4 = IRAK4 (Homo sapiens (Human), UniProt Q9NWZ3); assay: IRAK4 enzymatic assay; type: biochemical
Procedure, shortened: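 Recombinant His-TEV-IRAK4 (20 ng/well) phosphorylating biotinylated STK1 peptide (300 nM) with 2 μM ATP plus [^33P]ATP, 3 h at 30° C in pH 7.0 Hepes buffer with Mg2+ and Mn2+. Compounds 20 µM to 1 nM; EDTA stop, radioactivity captured on streptavidin FlashPlates.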

[2] = target: IRAK1 (His-TEV-IRAK1 (194-712)) (Homo sapiens (Human), UniProt P51617); assay: IRAK1 enzymatic assay; type: biochemical
Procedure, shortened: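 Recombinant His-TEV-IRAK1 (194-712), 15 ng/well, autophosphorylation with 1 μM ATP plus [33P]ATP, 3 h at 30° C in Hepes pH 7.0 buffer with MgCl2, DTT, EGTA, BSA and Triton; compounds from 20 µM to 1 nM. The reaction was stopped with EDTA, and radioactivity was counted in streptavidin FlashPlates.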

Chain of IRAK4 (Q9NWZ3 whole entry): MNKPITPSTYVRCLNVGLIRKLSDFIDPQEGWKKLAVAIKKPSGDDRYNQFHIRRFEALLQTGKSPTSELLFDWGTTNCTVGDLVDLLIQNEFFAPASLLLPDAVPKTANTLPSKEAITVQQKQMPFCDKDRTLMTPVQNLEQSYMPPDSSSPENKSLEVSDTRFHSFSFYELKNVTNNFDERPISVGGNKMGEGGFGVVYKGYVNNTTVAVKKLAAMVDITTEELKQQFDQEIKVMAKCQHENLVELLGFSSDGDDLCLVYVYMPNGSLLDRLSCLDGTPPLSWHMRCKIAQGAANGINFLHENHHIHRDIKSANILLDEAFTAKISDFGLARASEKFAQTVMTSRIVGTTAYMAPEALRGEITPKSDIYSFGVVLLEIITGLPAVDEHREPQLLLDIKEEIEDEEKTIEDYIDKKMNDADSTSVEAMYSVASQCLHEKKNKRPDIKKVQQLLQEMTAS
Chain of IRAK1 (His-TEV-IRAK1 (194-712)) (P51617 194-712): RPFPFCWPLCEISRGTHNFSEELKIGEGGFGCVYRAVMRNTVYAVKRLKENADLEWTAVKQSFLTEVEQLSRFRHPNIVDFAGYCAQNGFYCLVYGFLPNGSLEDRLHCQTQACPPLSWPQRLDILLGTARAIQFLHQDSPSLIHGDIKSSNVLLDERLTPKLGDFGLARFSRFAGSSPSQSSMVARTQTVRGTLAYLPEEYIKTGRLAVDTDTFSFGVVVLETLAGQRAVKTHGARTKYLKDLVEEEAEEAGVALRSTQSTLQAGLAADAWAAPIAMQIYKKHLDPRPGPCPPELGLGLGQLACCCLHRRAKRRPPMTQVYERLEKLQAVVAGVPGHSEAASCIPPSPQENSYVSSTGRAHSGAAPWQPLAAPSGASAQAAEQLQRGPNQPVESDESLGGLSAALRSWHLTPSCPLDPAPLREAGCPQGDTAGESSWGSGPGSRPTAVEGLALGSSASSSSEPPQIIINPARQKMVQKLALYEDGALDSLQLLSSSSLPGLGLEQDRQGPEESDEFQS

Cn1cc(-c2cccc(-c3ncc(-c4cnn(C)c4)c(NC[C@H]4CC[C@H](O)CC4)n3)c2)cn1 [Example 156]
IC50 [1]: 0.1 to 1 µM | IC50 (IRAK4): < 0.1 µM | IC50 [2]: 0.1 to 1 µM

Cn1cc(-c2cccc(-c3ncc(-c4cnn(C)c4)c(NC4CC5(CCN(S(C)(=O)=O)C5)C4)n3)c2)cn1 (stereo not drawn) [Example 169]
IC50 [1]: > 5 µM | IC50 (IRAK4): < 0.1 µM | IC50 [2]: 0.1 to 1 µM

Cn1cc(-c2cccc(-c3ncc(-c4cnn(C)c4)c(N[C@@H]4CCN(S(C)(=O)=O)C4)n3)c2)cn1 [Example 171]
IC50 [1]: 1 to 5 µM | IC50 (IRAK4): < 0.1 µM | IC50 [2]: < 0.1 µM

Cn1cc(-c2cccc(-c3ncc(-c4cnn(C)c4)c(NCCCNS(C)(=O)=O)n3)c2)cn1 [Example 179]
IC50 [1]: 1 to 5 µM | IC50 (IRAK4): < 0.1 µM | IC50 [2]: 0.1 to 1 µM

Cn1cc(-c2cccc(-c3ncc(-c4cnn(C)c4)c(NCC4CC(O)C4)n3)c2)cn1 (stereo not drawn) [Example 181]
IC50 [1]: 1 to 5 µM | IC50 (IRAK4): < 0.1 µM | IC50 [2]: 0.1 to 1 µM

Cn1cc(-c2cccc(-c3ncc(-c4cnn(C)c4)c(N[C@H]4CC[C@H](NS(C)(=O)=O)CC4)n3)c2)cn1 [Example 182]
IC50 [1]: 0.1 to 1 µM | IC50 (IRAK4): < 0.1 µM | IC50 [2]: < 0.1 µM

Cn1cc(-c2cccc(-c3ncc(-c4cnn(C)c4)c(N[C@H]4C[C@@H](NS(C)(=O)=O)C4)n3)c2)cn1 [Example 183]
IC50 [1]: 1 to 5 µM | IC50 (IRAK4): < 0.1 µM | IC50 [2]: 0.1 to 1 µM

Cc1nnc(-c2cnc(-c3cccc(-c4cnn(C)c4)c3)nc2NCCNS(C)(=O)=O)s1 [Example 184]
IC50 [1]: 0.1 to 1 µM | IC50 (IRAK4): < 0.1 µM | IC50 [2]: 0.1 to 1 µM

Cn1cc(-c2cccc(-c3ncc(-c4cnn(C)c4)c(N[C@H]4CC[C@H](N)C4)n3)c2)cn1 [Example 185]
IC50 [1]: 1 to 5 µM | IC50 (IRAK4): < 0.1 µM | IC50 [2]: 1 to 5 µM

Cn1cc(-c2cccc(-c3ncc(-c4cnn(C)c4)c(NC45CCC(N)(CC4)CC5)n3)c2)cn1 [Example 186]
IC50 [1]: 0.1 to 1 µM | IC50 (IRAK4): < 0.1 µM | IC50 [2]: < 0.1 µM

Cn1cc(-c2cccc(-c3ncc(-c4cnn(C)c4)c(NC45CCC(NS(C)(=O)=O)(CC4)CC5)n3)c2)cn1 [Example 187]
IC50 [1]: 0.1 to 1 µM | IC50 (IRAK4): < 0.1 µM | IC50 [2]: < 0.1 µM

Cn1cc(-c2cccc(-c3ncc(-c4cnn(C)c4)c(NC4CC(CN)C4)n3)c2)cn1 (stereo not drawn) [Example 188]
IC50 [1]: 1 to 5 µM | IC50 (IRAK4): < 0.1 µM | IC50 [2]: < 0.1 µM

Cn1cc(-c2cccc(-c3ncc(-c4cnn(C)c4)c(N[C@H]4CC[C@H](NS(C)(=O)=O)C4)n3)c2)cn1 [Example 190]
IC50 [1]: 1 to 5 µM | IC50 (IRAK4): < 0.1 µM | IC50 [2]: < 0.1 µM

Cn1cc(-c2cccc(-c3ncc(-c4cnn(C)c4)c(NC4CCC(CN)CC4)n3)c2)cn1 (stereo not drawn) [Example 194]
IC50 [1]: 0.1 to 1 µM | IC50 (IRAK4): < 0.1 µM | IC50 [2]: 0.1 to 1 µM

Cn1cc(-c2cccc(-c3ncc(-c4cnn(C)c4)c(N[C@H]4C[C@@H](CNS(C)(=O)=O)C4)n3)c2)cn1 [Example 195, N-(3-{5-(1-Methyl-1H-pyrazol-4-yl)-2-[3-(1-methyl-1H-pyrazol-4-yl)-phenyl]-pyrimidin-4-ylamino}-cyclobutylmethyl)-methanesulfonamide]
IC50 [1]: 1 to 5 µM | IC50 (IRAK4): < 0.1 µM | IC50 [2]: < 0.1 µM

Cn1cc(-c2cccc(-c3ncc(-c4cnn(C)c4)c(N[C@H]4C[C@H](CNS(C)(=O)=O)C4)n3)c2)cn1 [Example 196, N-(3-{5-(1-Methyl-1H-pyrazol-4-yl)-2-[3-(1-methyl-1H-pyrazol-4-yl)-phenyl]-pyrimidin-4-ylamino}-cyclobutylmethyl)-methanesulfonamide]
IC50 [1]: 1 to 5 µM | IC50 (IRAK4): 0.1 to 1 µM | IC50 [2]: 0.1 to 1 µM

Cn1cc(-c2cccc(-c3ncc(-c4cnn(C)c4)c(NC4CC5CCC4N5S(C)(=O)=O)n3)c2)cn1 (stereo not drawn) [Example 199]
IC50 [1]: 0.1 to 1 µM | IC50 (IRAK4): < 0.1 µM | IC50 [2]: 0.1 to 1 µM

Cn1cc(-c2cccc(-c3ncc(-c4cnn(C)c4)c(N[C@H]4CCC[C@H](O)[C@@H]4O)n3)c2)cn1 [Example 208, (1S,2R,3S)-3-{5-(1-Methyl-1H-pyrazol-4-yl)-2-[3-(1-methyl-1H-pyrazol-4-yl)-phenyl]-pyrimidin-4-ylamino}-cyclohexane-1,2-diol]
IC50 [1]: 0.1 to 1 µM | IC50 (IRAK4): < 0.1 µM | IC50 [2]: 0.1 to 1 µM

Cc1nnc(-c2cnc(-c3cccc(-c4cnn(C)c4)c3)nc2NC2CCC(NS(=O)(=O)C3CC3)CC2)s1 (stereo not drawn) [Example 209]
IC50 [1]: 0.1 to 1 µM | IC50 (IRAK4): < 0.1 µM | IC50 [2]: < 0.1 µM

CC(C)Nc1nc(-c2cccc(-c3cnn(C)c3)c2)ncc1-c1nnc(C2CCNCC2)s1 [Example 210]
IC50 [1]: 0.1 to 1 µM | IC50 (IRAK4): < 0.1 µM | IC50 [2]: 0.1 to 1 µM

CC(=O)NC[C@H]1C[C@@H](Nc2nc(-c3cccc(-c4cnn(C)c4)c3)ncc2-c2cnn(C)c2)C1 [Example 211, N-(3-{5-(1-Methyl-1H-pyrazol-4-yl)-2-[3-(1-methyl-1H-pyrazol-4-yl)-phenyl]-pyrimidin-4-ylamino}-cyclobutylmethyl)-acetamide]
IC50 [1]: 1 to 5 µM | IC50 (IRAK4): 0.1 to 1 µM | IC50 [2]: 0.1 to 1 µM

Cn1cc(-c2cccc(-c3ncc(-c4cnn(C)c4)c(NCCCS(C)(=O)=O)n3)c2)cn1 [Example 213]
IC50 [1]: 0.1 to 1 µM | IC50 (IRAK4): < 0.1 µM | IC50 [2]: < 0.1 µM

Cc1nnc(-c2cnc(-c3cccc(-c4cnn(C)c4)c3)nc2NC2CCC(F)(F)CC2)s1 [Example 214]
IC50 [1]: 1 to 5 µM | IC50 (IRAK4): < 0.1 µM | IC50 [2]: > 5 µM

Cc1ccc(-c2cnc(-c3cccc(-c4cnn(C)c4)c3)nc2NC2CCN(S(C)(=O)=O)CC2)cn1 [Example 215]
IC50 [1]: 0.1 to 1 µM | IC50 (IRAK4): < 0.1 µM | IC50 [2]: 0.1 to 1 µM

Cc1nnc(-c2cnc(-c3cccc(-c4cnn(C)c4)c3)nc2NCC(O)C(F)(F)F)s1 (stereo not drawn) [Example 216]
IC50 [1]: 0.1 to 1 µM | IC50 (IRAK4): < 0.1 µM | IC50 [2]: 0.1 to 1 µM

Cn1cc(-c2cccc(-c3ncc(-c4cnn(C)c4)c(NCC4CCCOC4)n3)c2)cn1 (stereo not drawn) [Example 217]
IC50 [1]: 1 to 5 µM | IC50 (IRAK4): < 0.1 µM | IC50 [2]: 0.1 to 1 µM

Cn1cc(-c2cccc(-c3ncc(-c4cnn(C)c4)c(N4CCC(O)CC4)n3)c2)cn1 [Example 219]
IC50 [1]: 1 to 5 µM | IC50 (IRAK4): < 0.1 µM | IC50 [2]: 0.1 to 1 µM

Cn1cc(-c2cccc(-c3ncc(-c4cnn(C)c4)c(N[C@H]4CC[C@@H](O)CC4)n3)c2)cn1 [Example 221]
IC50 [1]: 0.1 to 1 µM | IC50 (IRAK4): < 0.1 µM | IC50 [2]: 0.1 to 1 µM

Cn1cc(-c2cccc(-c3ncc(-c4cnn(C)c4)c(NC[C@H]4CCCC[C@H]4O)n3)c2)cn1 [Example 225]
IC50 [1]: 0.1 to 1 µM | IC50 (IRAK4): < 0.1 µM | IC50 [2]: 0.1 to 1 µM

Cn1cc(-c2cccc(-c3ncc(-c4cnn(C)c4)c(N[C@H]4CC[C@@H](N5CCOCC5)CC4)n3)c2)cn1 [Example 233]
IC50 [1]: 0.1 to 1 µM | IC50 (IRAK4): < 0.1 µM | IC50 [2]: 0.1 to 1 µM

Cn1cc(-c2cccc(-c3ncc(-c4cnn(C)c4)c(NC4CCCC4O)n3)c2)cn1 (stereo not drawn) [Example 238]
IC50 [1]: 0.1 to 1 µM | IC50 (IRAK4): < 0.1 µM | IC50 [2]: 0.1 to 1 µM

Cn1cc(-c2cccc(-c3ncc(-c4cnn(C)c4)c(N4CCC(N)CC4)n3)c2)cn1 [Example 239]
IC50 [1]: 0.1 to 1 µM | IC50 (IRAK4): 0.1 to 1 µM | IC50 [2]: 0.1 to 1 µM

Cn1cc(-c2cccc(-c3ncc(-c4cnn(C)c4)c(NC45CC(CN)(C4)C5)n3)c2)cn1 [Example 242]
IC50 [1]: 0.1 to 1 µM | IC50 (IRAK4): < 0.1 µM | IC50 [2]: 0.1 to 1 µM

Cc1nnc(-c2cnc(-c3cccc(-c4cnn(C)c4)c3)nc2NC2CCS(=O)(=O)CC2)s1 [Example 243]
IC50 [1]: 0.1 to 1 µM | IC50 (IRAK4): < 0.1 µM | IC50 [2]: 1 to 5 µM

Cn1cc(-c2cccc(-c3ncc(-c4cnn(C)c4)c(NC4CCCCC4O)n3)c2)cn1 (stereo not drawn) [Example 244]
IC50 [1]: 0.1 to 1 µM | IC50 (IRAK4): < 0.1 µM | IC50 [2]: 0.1 to 1 µM

Cn1cc(-c2cccc(-c3ncc(-c4cnn(C)c4)c(NC45CC(CNS(C)(=O)=O)(C4)C5)n3)c2)cn1 [Example 245]
IC50 [1]: 0.1 to 1 µM | IC50 (IRAK4): < 0.1 µM | IC50 [2]: < 0.1 µM

Cc1nnc(-c2cnc(-c3cccc(-c4cnn(C)c4)c3)nc2NC2CCCN(S(C)(=O)=O)CC2)s1 (stereo not drawn) [Example 253]
IC50 [1]: 0.1 to 1 µM | IC50 (IRAK4): < 0.1 µM | IC50 [2]: < 0.1 µM

Cc1nnc(-c2cnc(-c3cccc(-c4cnn(C)c4)c3)nc2N[C@H]2CC[C@H](NS(C)(=O)=O)CC2)s1 [Example 254]
IC50 [1]: < 0.1 µM | IC50 (IRAK4): < 0.1 µM | IC50 [2]: < 0.1 µM

CC(=O)NC1(CNc2nc(-c3cccc(-c4cnn(C)c4)c3)ncc2-c2cnn(C)c2)CCCCC1 [Example 256]
IC50 [1]: 1 to 5 µM | IC50 (IRAK4): < 0.1 µM | IC50 [2]: 1 to 5 µM

Cn1cc(-c2cccc(-c3ncc(-c4cnn(C)c4)c(NC4CCS(=O)(=O)CC4)n3)c2)cn1 [Example 257]
IC50 [1]: 1 to 5 µM | IC50 (IRAK4): < 0.1 µM | IC50 [2]: 0.1 to 1 µM

CC(C)Nc1nc(-c2cccc(-c3cnn(C)c3)c2)ncc1-c1cnn(C)c1 [Example 260]
IC50 [1]: 1 to 5 µM | IC50 (IRAK4): 0.1 to 1 µM | IC50 [2]: 0.1 to 1 µM

Cn1cc(-c2cccc(-c3ncc(-c4cnn(C)c4)c(NCC4(NS(C)(=O)=O)CCCCC4)n3)c2)cn1 [Example 262]
IC50 [1]: 1 to 5 µM | IC50 (IRAK4): < 0.1 µM | IC50 [2]: 0.1 to 1 µM

Cn1cc(-c2cccc(-c3ncc(-c4cnn(C)c4)c(N4CCC(CNS(C)(=O)=O)C4)n3)c2)cn1 (stereo not drawn) [Example 265]
IC50 [1]: > 5 µM | IC50 (IRAK4): < 0.1 µM | IC50 [2]: 0.1 to 1 µM

CC(=O)NC12CC(Nc3nc(-c4cccc(-c5cnn(C)c5)c4)ncc3-c3cnn(C)c3)(C1)C2 [Example 266]
IC50 [1]: 0.1 to 1 µM | IC50 (IRAK4): < 0.1 µM | IC50 [2]: < 0.1 µM
